According to ChEMBL document CHEMBL5625197, “The mystery of titan hunter: Rationalized striking of the MAPK pathway via Newly synthesized 6-Indolylpyridone-3-Carbonitrile derivatives” (Eur J Med Chem, 2023):
One block for each molecule: values may come before it.

How the values were obtained:
[1] = biological target: Hepatocyte growth factor receptor (Homo sapiens, UniProt P08581); assay: Inhibition of c-Met (unknown origin)
SR [2] = assay: cells; assay type: functional; conditions: Homo sapiens, 96 h, time 4 day, read-out: GI
Description: Growth inhibition of human SR cells at 10 uM incubated for 4 days by MTT assay relative to control

HOP-92 [3] = assay: cells; assay type: functional; conditions: Homo sapiens, HOP-92, 96 h, time 4 day, read-out: GI
Description: Growth inhibition of human HOP-92 cells at 10 uM incubated for 4 days by MTT assay relative to control

RXF 393 [4] = assay: cells; assay type: functional; conditions: Homo sapiens, RXF 393, 96 h, time 4 day, read-out: GI
Description: Growth inhibition of human RXF 393 cells at 10 uM incubated for 4 days by MTT assay relative to control

HCT-116 [5] = assay: cells; assay type: functional; conditions: Homo sapiens, HCT-116, 96 h, time 4 day, read-out: GI
Description: Growth inhibition of human HCT-116 cells at 10 uM incubated for 4 days by MTT assay relative to control

SR [6] = assay: Cytotoxicity against human SR cells assessed as cell growth inhibition incubated for 4 days by MTT assay; assay type: functional; conditions: 96 h, time 4 day
[7] = Cytotoxicity against human PCS-800-011 cells assessed as cell growth inhibition incubated for 4 days by MTT assay
HOP-92 [8] = assay: Cytotoxicity against human HOP-92 cells assessed as cell growth inhibition incubated for 4 days by MTT assay; assay type: functional; conditions: HOP-92, 96 h, time 4 day
[9] = Cytotoxicity against human MRC5 cells assessed as cell growth inhibition incubated for 4 days by MTT assay
RXF 393 [10] = assay: Cytotoxicity against human RXF 393 cells assessed as cell growth inhibition incubated for 4 days by MTT assay; assay type: functional; conditions: RXF 393, 96 h, time 4 day
[11] = Cytotoxicity against human HEK293 cells assessed as cell growth inhibition incubated for 4 days by MTT assay
HCT-116 [12] = assay: Cytotoxicity against human HCT-116 cells assessed as cell growth inhibition incubated for 4 days by MTT assay; assay type: functional; conditions: HCT-116, 96 h, time 4 day
[13] = Cytotoxicity against human FHC cells assessed as cell growth inhibition incubated for 4 days by MTT assay
[14] = Selectivity index, ratio of GI50 for cytotoxicity against human PCS-800-011 cells to GI50 for cytotoxicity against human SR cells; assay type: toxicity, cell-based; conditions: PCS-800-011 cells versus SR cells, read-out: RatioGI50
[15] = Selectivity index, ratio of GI50 for cytotoxicity against human MRC5 cells to GI50 for cytotoxicity against human HOP-92 cells
[16] = Selectivity index, ratio of GI50 for cytotoxicity against human HEK293 cells to GI50 for cytotoxicity against human RXF 393 cells
[17] = Selectivity index, ratio of GI50 for cytotoxicity against human FHC cells to GI50 for cytotoxicity against human HCT-116 cells; assay type: toxicity, cell-based; conditions: FHC cells versus HCT-116 cells, read-out: RatioGI50
[18] = Cytotoxicity against human PCS-800-011 cells assessed as fold change in cell growth inhibition incubated for 4 days by MTT assay; assay type: toxicity, cell-based; conditions: pcs-800-011, 96 h, time 4 day

IC50 [1]: 0.128 µM
SMILES: CCOc1ccn(-c2ccc(F)cc2)c(=O)c1C(=O)Nc1ccc(Oc2ccnc(N)c2Cl)c(F)c1 [BMS-777607]

SMILES: N#Cc1c(-c2ccc(Cl)c(Cl)c2)cc(-c2c[nH]c3ccccc23)[nH]c1=O
inhibition of growth at 10 µM (SR [2]): 71.8%
inhibition of growth at 10 µM (HOP-92 [3]): 73.3%
inhibition of growth at 10 µM (RXF 393 [4]): 75.8%
inhibition of growth at 10 µM (HCT-116 [5]): 76.5%
GI50 (SR [6]): 9.17 µM
GI50 at 96 h [7]: 73.6 µM
GI50 (HOP-92 [8]): 3.44 µM
GI50 at 96 h [9]: 56.1 µM
GI50 (RXF 393 [10]): 16.6 µM
GI50 at 96 h [11]: 42.6 µM
GI50 (HCT-116 [12]): 10.6 µM
GI50 at 96 h [13]: 41 µM
selectivity ratio [14]: 8.02
RatioGI50 [15]: 16.3
RatioGI50 [16]: 2.56
selectivity ratio [17]: 3.86
fold change (FC) [18]: 3.5

SMILES: COc1cc(-c2cc(-c3c[nH]c4ccccc34)[nH]c(=O)c2C#N)ccc1O
inhibition of growth at 10 µM (SR [2]): 52.1%
inhibition of growth at 10 µM (HOP-92 [3]): 53.5%
inhibition of growth at 10 µM (RXF 393 [4]): 65%
inhibition of growth at 10 µM (HCT-116 [5]): 64.4%

SMILES: N#Cc1c(-c2cccc([N+](=O)[O-])c2)cc(-c2c[nH]c3ccccc23)[nH]c1=O
inhibition of growth at 10 µM (SR [2]): 18.1%
inhibition of growth at 10 µM (HOP-92 [3]): 9.93%
inhibition of growth at 10 µM (RXF 393 [4]): 16.9%
inhibition of growth at 10 µM (HCT-116 [5]): 6.36%

SMILES: N#Cc1c(-c2cccc(Cl)c2Cl)cc(-c2c[nH]c3ccccc23)[nH]c1=O
inhibition of growth at 10 µM (SR [2]): 57.6%
inhibition of growth at 10 µM (HOP-92 [3]): 77.8%
inhibition of growth at 10 µM (RXF 393 [4]): 63.2%
inhibition of growth at 10 µM (HCT-116 [5]): 81.7%
GI50 (SR [6]): 22.3 µM
GI50 at 96 h [7]: 83.4 µM
GI50 (HOP-92 [8]): 15.4 µM
GI50 at 96 h [9]: 71.3 µM
GI50 (RXF 393 [10]): 16.1 µM
GI50 at 96 h [11]: 61 µM
GI50 (HCT-116 [12]): 8.12 µM
GI50 at 96 h [13]: 65.7 µM
selectivity ratio [14]: 3.74
RatioGI50 [15]: 4.62
RatioGI50 [16]: 3.8
selectivity ratio [17]: 8.09
fold change (FC) [18]: 4

SMILES: N#Cc1c(-c2cccnc2)cc(-c2c[nH]c3ccccc23)[nH]c1=O
inhibition of growth at 10 µM (SR [2]): 13.2%
inhibition of growth at 10 µM (HOP-92 [3]): 13%
inhibition of growth at 10 µM (RXF 393 [4]): -0.69%
inhibition of growth at 10 µM (HCT-116 [5]): 9.94%

SMILES: N#Cc1c(-c2ccc(C(F)(F)F)cc2)cc(-c2c[nH]c3ccccc23)[nH]c1=O
inhibition of growth at 10 µM (SR [2]): 48.5%
inhibition of growth at 10 µM (HOP-92 [3]): 56.7%
inhibition of growth at 10 µM (RXF 393 [4]): 71.6%
inhibition of growth at 10 µM (HCT-116 [5]): 67.5%
